Assay: Lipid maldigestion/malabsorption animal model obtained with Orlistat: EPA incorporation in red blood cells, plasma lipids and tissues
Format: in vivo, rats
Details: comparison between the groups receiving fish oil with or without Orlistat; day 7
Text: Treatments: Control rats fed fish oil with or without Orlistat and rats fed NAG derivatives described in FIGS. 1A and 1B. Values are means±SEM (n=6).
The inventors tested their concept in a lipid malabsorption animal model. The lipid maldigestion/malabsorption conditions were obtained using Orlistat®, a well known pancreatic and gastric lipases inhibitor. Animals were fed with long-chain polyunsaturated fatty acid (LC-PUFA) supplements containing mainly eicosapentaenoic (EPA) acid. Fish oil was used as a source of triacylglycerols and different EPA glycerides, for example those of FIGS. 1A and 1B, were evaluated. At different time intervals the fatty acid profile of red blood cells and plasma lipids was assessed. At the end of the experiment, fatty acid profiles of different tissues were determined. […]
The concept was tested in a lipid maldigestion or malabsorption animal model. […] Fish oil was used as a source of triacylglycerols and the different EPA glycerides provided in FIGS. 1A and 1B were evaluated. […] At the end of the experiment, fatty acid profiles of different tissues were determined.
The main objective was to follow the level of EPA in red blood cell and plasma lipids. The main comparison evaluated was the difference in EPA level between groups receiving EPA derivatives (FIGS. 1A and 1B) in combination with Orlistat and the […] control group (fish oil+Orlistat).

CCCCCCCCCCC[C@@H](C[C@@H]1OC(=O)[C@H]1CCCCCC)OC(=O)[C@H](CC(C)C)NC=O [Orlistat]
EPA incorporation in red blood cells: decrease EPA incorporation in red blood cells

— patent US10039742B2, “Sn-2-monoacylglycerols and lipid malabsorption” (Nestec S.A., priority 2010, dated 2018)
